Data set [1] concerns Mus musculus. The data set can be described thus: Ratio of caffeic acid IC50 to compound IC50 for antihemorrhagic activity in ddY mouse assessed as inhibition of Protobothrops flavoviridis venom-induced hemorrhagic lesion formation compound incubated with venom for 10 mins and administered subcutaneously measured after 24 hrs. The format is functional.
In data set [2] the test system is Mus musculus. The data set can be described thus: Ratio of benzoic acid IC50 to compound IC50 for antihemorrhagic activity in ddY mouse assessed as inhibition of Protobothrops flavoviridis venom-induced hemorrhagic lesion formation compound incubated with venom for 10 mins and administered subcutaneously measured after 24 hrs. The data set is classed as functional.

Data set [3] relates to Mus musculus. The data set can be described thus: Antihemorrhagic activity in ddY mouse assessed as inhibition of Protobothrops flavoviridis venom-induced hemorrhagic lesion formation compound incubated with venom for 10 mins and administered subcutaneously measured after 24 hrs. The format is functional, organism-based.
Data set [4] in a line: Dissociation constant, pKa of the compound. The data set is classed as physicochemical.

A word on the IC50: it is the concentration that inhibits the measured activity by half. As a reminder, the pKa is the negative logarithm of the acid dissociation constant. Low values mean a group that gives up its proton readily, high ones a group that holds its proton tightly.

The structures appear in SMILES notation.

`O=C(O)c1cccc(C(=O)O)c1` [ISOPHTHALIC ACID]: the “Ratio IC50” value in the data set with Mus musculus [1] and in the data set with Mus musculus [2] was 2 in each case. The IC50 in the data set on Mus musculus [3] amounted to 100 nM. `O=C(O)c1ccccc1Cl`: the pKa in data set [4] was found to be 2.97. The half-inhibitory concentration (IC50) in the data set on Mus musculus [3] worked out at 250 nM. `Cc1ccc(C(=O)O)cc1` [4-METHYLBENZOIC ACID] returned a pKa in data set [4] of 4.37. The half-maximal inhibitory concentration (IC50) with Mus musculus [3] came out at 220 nM. `O=C(O)c1ccc([N+](=O)[O-])cc1` [4-NITROBENZOIC ACID]: the pKa in data set [4] was 3.42. The IC50 in the data set on Mus musculus [3] was 240 nM. Consider `O=C(O)c1ccccc1C(=O)O` [PHTHALIC ACID], for which the “Ratio IC50” value in the data set on Mus musculus [1] and in the data set on Mus musculus [2] was 2 in each case. Moreover, the IC50 with Mus musculus [3] amounted to 100 nM.

`O=C(O)c1cccc(O)c1` [3-HYDROXYBENZOIC ACID] displayed a pKa in data set [4] of 4.08. Further, the IC50 in the data set on Mus musculus [3] came to 200 nM. `O=C(O)c1cc(C(=O)O)cc(C(=O)O)c1`: the pKa in data set [4] turned out to be 2.98. Further, in the data set on Mus musculus [3], the concentration for half-maximal inhibition (IC50) was 67 nM.

In the case of `O=C(O)c1ccccc1O` [SALICYLIC ACID], the IC50 in the data set on Mus musculus [3] amounted to 200 nM. Compound `O=C(O)c1c(C(=O)O)c(C(=O)O)c(C(=O)O)c(C(=O)O)c1C(=O)O` [MELLITIC ACID] returned a pKa in data set [4] of 1.15. In addition, the concentration for half-maximal inhibition (IC50) in the data set with Mus musculus [3] worked out at 43 nM.

Consider `O=C(O)c1ccc(C(=O)O)cc1` [TEREPHTHALIC ACID], for which the “Ratio IC50” value in the data set on Mus musculus [1] and in the data set on Mus musculus [2] was 2 in each case. Moreover, the IC50 in the data set on Mus musculus [3] was 90 nM. `O=C(O)c1cc(C(=O)O)c(C(=O)O)c(C(=O)O)c1C(=O)O` [BENZENEPENTACARBOXYLIC ACID] yielded a pKa in data set [4] of 1.93. Further, the half-maximal inhibitory concentration (IC50) in the data set with Mus musculus [3] stood at 43 nM. `O=C(O)c1ccc(C(=O)O)c(C(=O)O)c1` registered a pKa in data set [4] of 2.84. The 50% inhibitory concentration (IC50) in the data set with Mus musculus [3] came out at 62 nM. As for `O=C(O)c1ccccc1[N+](=O)[O-]`, the IC50 in the data set with Mus musculus [3] came out at 260 nM.

For `O=C(O)c1cc(C(=O)O)c(C(=O)O)cc1C(=O)O` [PYROMELLITIC ACID], the pKa in data set [4] was 1.87. Also, the IC50 in the data set with Mus musculus [3] came out at 35 nM.

On to `O=C(O)/C=C/c1ccc(O)c(O)c1` [CAFFEIC ACID], for which the pKa in data set [4] was found to be 4.58. `O=C(O)/C=C/C=C/C(=O)O`: in the data set with Mus musculus [3], the IC50 worked out at 110 nM. On to `O=C(O)c1ccccc1` [BENZOIC ACID], for which the IC50 in the data set on Mus musculus [3] stood at 200 nM. `O=C(O)c1ccc(O)cc1` [PARABEN] registered a pKa in data set [4] of 4.57. Besides, the IC50 in the data set with Mus musculus [3] was found to be 200 nM.

The record behind these values is ChEMBL document CHEMBL1921721, “Benzenepolycarboxylic acids with potential anti-hemorrhagic properties and structure-activity relationships” (Bioorg Med Chem, 2011).
